According to US20160272622A1, “TETRAZOLINONE COMPOUND AND USE THEREOF” (SUMITOMO CHEMICAL COMPANY, LIMITED, priority 2013, published 2016):

What was measured:
Assay type in all cases: in vivo
[1] = test system: barley net blotch fungus (Pyrenophora teres); experiment: Barley net blotch control test, foliar spray before inoculation; conditions: 500 ppm sprayed on barley (NISHINOHOSHI); inoculated 2 days after spraying
Method: (§1) The control effect was evaluated by visually observing the area of lesion on each of test plants at the time of investigation, and comparing the area of lesion spots on a plant treated with the present compound with that on an untreated plant.
Each of plastic pots was filled with soil and barley (cultivar: NISHINOHOSHI) was sowed and grown in a greenhouse for 7 days. Then, each water dilution prepared by adjusting so as to contain a predetermined concentration (500 ppm) of any one compound of the present compounds 1, and 3 to 16 was sprayed over stems and leaves of the barley so that it sufficiently adhered to the surface of the leaves of the barley. After spraying, the plant was air-dried. After 2 days, an aqueous suspension containing spores of barley net blotch fungus (Pyrenophora teres) was sprayed to inoculate the spores. After completion of the inoculation, the plant was placed for 3 days in a greenhouse at 23° C. in the daytime and 20° C. at night under high humidity condition and cultivated in a greenhouse for 7 days, and then the area of lesion was investigated. As a result, the area of lesion on the plant treated with the present compound(s) 1, or 3 to 16 was 30% or less of that on an untreated plant.

[2] = test system: wheat leaf blotch fungus (Septoria tritici); experiment: Wheat leaf blotch control test, spray after inoculation; conditions: 50 ppm sprayed on wheat (APOGEE) 3 days after inoculation
[3] = test system: target spot fungus (Corynespora cassiicola); experiment: Cucumber target spot control test, foliar spray before inoculation; conditions: 200 ppm sprayed on cucumber (SAGAMI HANJIRO); inoculated one day after spraying; 7 days
Method: as §1
Each of plastic pots was filled with soil and cucumber (cultivar: SAGAMI HANJIRO) was sowed and grown in a greenhouse for 19 days. Then, each water dilution prepared by adjusting so as to contain a predetermined concentration (200 ppm) of the present compound 6 was sprayed over stems and leaves of the cucumber so that it sufficiently adhered to the surface of the leaves of the cucumber. After spraying, the plant was air-dried. After one day, an aqueous suspension containing spores of target spot fungus […]. After the inoculation, the plant was cultivated in a greenhouse at 24° C. in the daytime and 20° C. at night for 7 days, and then the area of lesion was investigated. As a result, the area of lesion on the plant treated with the present compound 6 was 30% or less of that on an untreated plant.

[4] = test system: wheat rust fungus (Puccinia recondita); experiment: Wheat rust control test, foliar spray before inoculation; conditions: 200 ppm sprayed on wheat (SHIROGANE); inoculated 5 days after spraying
Method: as §1
Each of plastic pots was filled with soil and wheat (cultivar: SHIROGANE) was sowed and grown in a greenhouse for 9 days. Then, each water dilution prepared by adjusting so as to contain a predetermined concentration (200 ppm) of any one compound of the present compounds 12, and 14 to 16 was sprayed over stems and leaves of the wheat so that it sufficiently adhered to the surface of the leaves of the wheat. After spraying, the plant was air-dried and cultivated at 20° C. for 5 days under illumination, and then inoculated by sprinkling with spores of wheat rust fungus (Puccinia recondita). After the inoculation, the plant was placed at 23° C. for one day under dark and high humidity condition, and cultivated under illumination at 20° C. for 8 days, and then the area of lesion was investigated.

[5] = test system: cotton aphid (Aphis gossypii); experiment: Cotton aphid control test on sprayed cucumber; conditions: 500 ppm, 20 mL sprayed on cucumber; adults and larvae; after 6 days
Method: Thirty (30) heads of cotton aphid (Aphis gossypii) (including adults and larvae) were released on the leaves of cucumber (cultivar: SAGAMI HANJIRO FUSHINARI) grown in a polyethylene cup until the first true leaf was developed. Next day, 20 mL of the test chemical solution was sprayed.
Control value (%)={1−(Cb×Tai)/(Cai×Tb)}×100
wherein symbols in the equation represent the followings: […]
Cb: Number of insects before spraying chemical solution in untreated area;
Cai: Number of surviving insects in untreated area;
Tb: Number of insects before spraying chemical solution in treated area; and
Tai: Number of surviving insects in treated area.

Cn1nnn(-c2cnn(C(C)(C)C)c2COc2ccn(-c3ccc(Cl)cc3)n2)c1=O [present compound 1, 1-(1-tert-butyl-5-{[1-(4-chlorophenyl)-1H-pyrazol-3-yl]oxymethyl}-1H-pyrazol-4-yl)-4-methyl-1,4-dihydrotetrazol-5-one]
area of lesion on treated plant relative to that on an untreated plant [1]: ≤ 30%

Cn1nnn(-c2cnn(C(C)(C)C)c2COc2nc(-c3ccc(Cl)cc3)cs2)c1=O [present compound 3]
area of lesion on treated plant relative to that on an untreated plant [2]: ≤ 30%

Cn1nnn(-c2cccnc2COc2ccn(-c3ccc(Cl)cc3)n2)c1=O [present compound 6, 1-(2-{[1-(4-chlorophenyl)-1H-pyrazol-3-yl]oxymethyl}-pyridin-3-yl)-4-methyl-1,4-dihydrotetrazol-5-one]
area of lesion on treated plant relative to that on an untreated plant [3]: ≤ 30%

COc1ccccc1-n1ccc(OCc2c(-n3nnn(C)c3=O)cnn2C(C)(C)C)n1 [present compound 12, 1-(1-tert-butyl-5-{[1-(2-methoxyphenyl)-1H-pyrazol-3-yl]oxymethyl}-1H-pyrazol-4-yl)-4-methyl-1,4-dihydrotetrazol-5-one]
area of lesion on treated plant relative to that on an untreated plant [4]: ≤ 30%
Control value [5]: ≥ 90%
